{"source": "patent US8519124B2", "about": "“Chemokine receptor antagonists and use thereof” (Ono Pharmaceutical Co., Ltd., priority 2005, dated 2013)", "key": {"[1]": {"assay": "Measurement of maximum plasma level (Cmax) and bioavailability (BA)", "assay_type": "in vivo", "details": "male, Crl:CD(SD), po; rat plasma; orally administered solution 10 mg/kg, fasting", "method": "Measurement of Maximum Plasma Level (CMax) and Bioavailability (BA)\nA test compound is weighed, dissolved in Solutol (trade name; manufactured by BASF-TAKEDA Vitamins Ltd.)/propylene glycol=7/3 which is heated to 60° C. and adjusted to 20 mg/mL; thereafter, the test compound is diluted by 10 times with distilled water for injection, and further diluted by 2 times with saline solution, by which intravenously administered solution is eventually made. The test compound is weighed, dissolved in Solutol (trade name; manufactured by BASF-TAKEDA Vitamins Ltd.)/propylene glycol=7/3 which is heated to 60° C., and adjusted to 20 mg/mL; thereafter, the test compound is diluted by 10 times with distilled water for injection, by which orally administered solution is eventually made. Intravenous administration is performed by rapid single administration (n=3) of intravenously administered solution (1 mg/kg) from the tail vein of Crl:CD(SD) Rat (male, manufactured by CHARLES RIVER LABORATORIES JAPAN, INC). Oral administration is performed by forced administration (n=3) of orally administered solution (10 mg/kg) into the stomach of Crl:CD(SD) Rat (male, manufactured by CHARLES RIVER LABORATORIES JAPAN, INC.) using a sonde. The administration is conducted under fasting conditions; water is freely ingested. A 0.35 mL blood sample is taken from cervical vein by using Heparinized Syringe at 15 minutes, 30 minutes, 1 hour, 2 hours, 4 hours, 6 hours, 8 hours, and 24 hours after administration. The obtained blood is stored in ice, and after centrifugation at 12,000 rpm for 5 minutes, blood plasma is fractionated. The blood plasma is preserved at a temperature of −80° C. The sample of blood plasma preserved at a temperature of −80° C. is dissolved; inner standard solution (100 μL) and acetonitrile (2 mL) are added to the blood plasma sample 100 μL and stirred; and the sample is centrifuged at 2,500 rpm for 10 minutes. After the supernatant is evaporated to dryness by means of a centrifugal concentrator, 67% dimethyl sulfoxide solution (150 μL) is added to the residue and dissolves them again; and 20 μL of the solution is analyzed by means of LC/MS/MS.\nThe analysis by means of LC/MS/MS should be performed, for example, under the following conditions:\nMeasurement device: Waters 2795 (manufactured by Waters Corporation)\nAnalytical column: Unison UK-C18, 3.0 μm particle size, 2.0 mm×30 mm (manufactured by Imtakt Corporation)\nAnalytical column temperature: Room temperature\nMoving bed: 5 mM IPC-PFAA-7 solution/acetonitrile (9/1→1/9)\nMeasurement device: Quatro micro API (manufactured by Micromass Communications Inc.)\nMethod for ionization: ES+\nCapillary electric potential: 3.30 kV\nSource temperature: 120° C.\nDesolvation temperature: 350° C.\nThe monitor ion which was suitable for each sample was selected.\nThe concentration transition in the rat blood plasma of the test compound is analyzed by means of non-compartment analysis method by using WinNonlin 4.0.1 (manufactured by Pharsight Corporation) to calculate the maximum blood concentration Cmax and the area under the blood concentration curve AUC.\nBA is calculated by means of the following formula: BA(%)={(AUCp.o./Dosep.o.)/(AUCi.v./Dosei.v.)}×100\nAUCp.o.: AUC in oral administration\nDosep.o.: Amount of the drug orally administered\nAUCi.v.: AUC in intravenous administration\nDosei.v.: Amount of the drug intravenously administered"}, "[2]": {"tested_on": "DOPA liposome (artificial lipid membrane)", "assay": "Artificial lipid membrane binding by using Biacore S51 system", "details": "50 μM compound", "method": "Artificial Lipid Membrane Binding Account by Using Biacore (Registered Trademark) S51 System\n10 mM of 1,2-Dioleoyl-sn-Glycero-3-Phosphate, Monosodium Salt (hereinafter abbreviated as DOPA) chloroform solution was evaporated to dryness by means of an aspirator, and 0.6 mL of PBS/5% dimethyl sulfoxide (hereinafter abbreviated as DMSO) was added. The chloroform solution was fully suspended by means of a vortex mixer, and the freezing and thawing were repeated for 5 times. Liposome was created by means of a liposome adjustment instrument (manufactured by Avestin Inc.) and 2 syringes, and was diluted to 0.5 mM with PBS/5% DMSO just prior to immobilization.\n(ii) Measurement Compound Adjustment\nThe 38 μL of 1×PBS is added to 2 μL DMSO solution (10 mM), and further the 360 μL 1×PBS/5% DMSO was added; the 50 μM of final concentration in the 1×PBS/5% DMSO was adjusted and measured.\nAll of the following analysis used Biacore® S51 system; the measurement conditions were set by Biacore S51 Control Soft.\nThe measurement temperature was set to be 37° C., and the 1×PBS/5% DMSO (pH 7.4 or PH 6.0) was used as a buffer. Series S Sensor Chip L1 was used for a sensor chip. The DOPA was immobilized in one of the measuring spots on the sensor surface, and the central spot was used as a reference.\nImmobilization of liposome was conducted at a flow rate of 10 μL/min for about 3 minutes; then the compound was added at a flow rate of 30 μL/min and the interaction was measured. The measurement conditions are as follows:\nAssay buffer: PBS/5% DMSO (pH 7.4 or PH 6.0)\nMeasurement temperature: 37° C.\nSensor chip: Series S Sensor Chip L1\nFlow rate: 10 μL/min at the time of the liposome immobilization; 30 μL/min at the time of the measurement of interaction with the compound\nRegeneration: 20 mM CHAPS (3-[(3-Cholamidopropyl)dimethylammonio]-1-propanesulfonate), Isopropanol/50 mM sodium hydroxide solution=40/60 (volume ratio) mixture (60 seconds)\nThe data processing was conducted by means of method of Abdiche et al. (Analytical biochemistry, 328, 233-243 (2004)) by using Biacore S51 Evaluation Soft.\nRegarding the value of binding response (RU) in which the value of reference was subtracted, it was divided by a sample molecular weight after minute error of the DMSO concentration included in the sample solution was corrected. In addition, the value obtained here was divided by an amount of capture at the time of the cycle because the value obtained here was proportional to the amount of capture of the liposome; further, the value was multiplied by a million to be considered as a corrected value (Corrected value=1000000)×RU (test compound)/molecular quantity (test compound) RU (liposome)).\nPropranolol, Amiodarone, Desipramine, Imipramine and Procaine were added as the controls, and it was recognized that the variation of the binding response was within ca. 10 to 15%.\nThe compound, in which a value of the binding response after the correction was equal to or more than 150, was determined as positive."}}}
{"smiles": "CC(C)(C)CN1CCC2(CCN(Cc3ccc(C(=O)N(Cc4ncc[nH]4)Cc4ncc[nH]4)cc3)CC2)C1", "note": "[Example 8 (114), 4-{[2-(2,2-dimethylpropyl)-2,8-diazaspiro[4.5]dec-8-yl]methyl}-N,N-bis(1H-imidazol-2-ylmethyl)benzamide]", "values": [{"measurement": "Cmax", "setting": "[1]", "result": 46, "unit": "ng/mL"}, {"measurement": "Judgement (phospholipidosis inductive effect)", "setting": "[2]; DOPA liposome", "result": "negative"}, {"measurement": "Corrected value of binding response (RU)", "setting": "[2]; DOPA liposome on Sensor Chip L1, 37° C., PBS/5% DMSO (pH 7.4 or PH 6.0)", "result": 80.7, "unit": "RU"}]}
